From the NIST ThermoML archive (doi:10.1021/je7002836)

Columns and labels:
[1] = molar heat capacity at constant pressure; xn = mol fraction of the nth substance listed; conditions: 101 kPa, Liquid
[2] = xn = mol fraction of the nth substance listed; conditions: 101 kPa, Liquid

CCCC[n+]1cccc(C)c1.F[B-](F)(F)F [1-butyl-3-methylpyridinium tetrafluoroborate] + CCO
Conditions	mass density, [2] [kg/m3]	molar heat capacity at constant pressure, [1] [J/K/mol]
293.15 K, x1 = 0.0073	800.5	113.6
293.15 K, x1 = 0.0126	807.8	115.2
293.15 K, x1 = 0.0231	821.5	119.1
293.15 K, x1 = 0.0512	855.1	129.4
293.15 K, x1 = 0.1003	904.1	146.4
293.15 K, x1 = 0.2569	1010.3	190.3
293.15 K, x1 = 0.3847	1065.4	223.7
293.15 K, x1 = 0.4841	1097.1	–
293.15 K, x1 = 0.5031	–	252.6
293.15 K, x1 = 0.5963	1124.9	276.9
293.15 K, x1 = 0.6919	–	301.6
293.15 K, x1 = 0.7107	1148	–
293.15 K, x1 = 0.7784	–	324.5
293.15 K, x1 = 0.7966	1162.2	–
293.15 K, x1 = 0.8711	–	350
293.15 K, x1 = 0.8923	–	355.9
293.15 K, x1 = 0.9514	1183.1	372.8
293.15 K, x1 = 1	1188.6	385.8
298.15 K, x1 = 0.0073	796.3	115.4
298.15 K, x1 = 0.0126	803.5	117.1
298.15 K, x1 = 0.0231	817.3	120.9
298.15 K, x1 = 0.0512	851	131
298.15 K, x1 = 0.1003	900.1	147.5
298.15 K, x1 = 0.2569	1006.4	191.3
298.15 K, x1 = 0.3847	1061.6	224.8
298.15 K, x1 = 0.4841	1093.4	–
298.15 K, x1 = 0.5031	–	254.2
298.15 K, x1 = 0.5963	1121.3	278.5
298.15 K, x1 = 0.6919	–	303.4
298.15 K, x1 = 0.7107	1144.5	–
298.15 K, x1 = 0.7784	–	326.6
298.15 K, x1 = 0.7966	1158.7	–
298.15 K, x1 = 0.8711	–	352.1
298.15 K, x1 = 0.8923	–	358.1
298.15 K, x1 = 0.9514	1179.6	375.1
298.15 K, x1 = 1	1185.2	387.7
303.15 K, x1 = 0.0073	792	117.3
303.15 K, x1 = 0.0126	799.3	119.1
303.15 K, x1 = 0.0231	813	122.7
303.15 K, x1 = 0.0512	846.8	132.6
303.15 K, x1 = 0.1003	896	148.7
303.15 K, x1 = 0.2569	1002.6	192.4
303.15 K, x1 = 0.3847	1057.9	226
303.15 K, x1 = 0.4841	1089.7	–
303.15 K, x1 = 0.5031	–	255.7
303.15 K, x1 = 0.5963	1117.7	280.1
303.15 K, x1 = 0.6919	–	305.3
303.15 K, x1 = 0.7107	1140.9	–
303.15 K, x1 = 0.7784	–	328.9
303.15 K, x1 = 0.7966	1155.2	–
303.15 K, x1 = 0.8711	–	354.4
303.15 K, x1 = 0.8923	–	360.5
303.15 K, x1 = 0.9514	1176.2	377.4
303.15 K, x1 = 1	1181.7	390.1
308.15 K, x1 = 0.0073	787.6	119.5
308.15 K, x1 = 0.0126	794.9	121.2
308.15 K, x1 = 0.0231	808.8	124.7
308.15 K, x1 = 0.0512	842.6	134.3
308.15 K, x1 = 0.1003	891.9	150.1
308.15 K, x1 = 0.2569	998.7	193.6
308.15 K, x1 = 0.3847	1054.2	227.2
308.15 K, x1 = 0.4841	1086.1	–
308.15 K, x1 = 0.5031	–	257.3
308.15 K, x1 = 0.5963	1114.2	281.8
308.15 K, x1 = 0.6919	–	307.3
308.15 K, x1 = 0.7107	1137.4	–
308.15 K, x1 = 0.7784	–	331.1
308.15 K, x1 = 0.7966	1151.7	–
308.15 K, x1 = 0.8711	–	356.9
308.15 K, x1 = 0.8923	–	363
308.15 K, x1 = 0.9514	1172.8	379.7
308.15 K, x1 = 1	1178.3	392.8
313.15 K, x1 = 0.0073	783.3	121.7
313.15 K, x1 = 0.0126	790.6	123.3
313.15 K, x1 = 0.0231	804.5	126.7
313.15 K, x1 = 0.0512	838.4	136
313.15 K, x1 = 0.1003	887.8	151.6
313.15 K, x1 = 0.2569	994.8	194.9
313.15 K, x1 = 0.3847	1050.4	228.5
313.15 K, x1 = 0.4841	1082.4	–
313.15 K, x1 = 0.5031	–	258.9
313.15 K, x1 = 0.5963	1110.6	283.5
313.15 K, x1 = 0.6919	–	309.4
313.15 K, x1 = 0.7107	1133.9	–
313.15 K, x1 = 0.7784	–	333.5
313.15 K, x1 = 0.7966	1148.3	–
313.15 K, x1 = 0.8711	–	359.5
313.15 K, x1 = 0.8923	–	365.7
313.15 K, x1 = 0.9514	1169.4	382
313.15 K, x1 = 1	1174.9	395.9
318.15 K, x1 = 0.0073	778.9	124.1
318.15 K, x1 = 0.0126	786.2	125.6
318.15 K, x1 = 0.0231	800.3	128.8
318.15 K, x1 = 0.0512	834.1	137.9
318.15 K, x1 = 0.1003	883.7	153.2
318.15 K, x1 = 0.2569	990.9	196.2
318.15 K, x1 = 0.3847	1046.7	229.8
318.15 K, x1 = 0.4841	1078.7	–
318.15 K, x1 = 0.5031	–	260.4
318.15 K, x1 = 0.5963	1107.1	285.3
318.15 K, x1 = 0.6919	–	311.5
318.15 K, x1 = 0.7107	1130.4	–
318.15 K, x1 = 0.7784	–	335.9
318.15 K, x1 = 0.7966	1144.8	–
318.15 K, x1 = 0.8711	–	362.2
318.15 K, x1 = 0.8923	–	368.5
318.15 K, x1 = 0.9514	1166	384.4
318.15 K, x1 = 1	1171.6	399.3
